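Interpolation was linear, between the two tested concentrations surrounding the appropriate level; five concentrations were tested over 48 hours in 96-well plates. The concentration for 50% growth inhibition is given as GI50. TGI marks complete inhibition of growth.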
Columns and labels:
Experiment in all cases: NCI-60 cell line screen, 48 h
[1] = tested on: 786-0 renal
[2] = tested on: A498 renal
[3] = tested on: A549 NSCLC
[4] = tested on: ACHN renal
[5] = tested on: BT-549 breast
[6] = tested on: CAKI-1 renal
[7] = tested on: CCRF-CEM leukemia
[8] = tested on: DU-145 prostate
[9] = tested on: EKVX NSCLC
[10] = tested on: HCT-116 colon
[11] = tested on: HCT-15 colon
[12] = tested on: HL-60(TB) leukemia
[13] = tested on: HOP-62 NSCLC
[14] = tested on: HT29 colon
[15] = tested on: K-562 leukemia
[16] = tested on: KM12 colon
[17] = tested on: LOX IMVI melanoma
[18] = tested on: M14 melanoma
[19] = tested on: MDA-MB-231 breast
[20] = tested on: MDA-MB-435
[21] = tested on: MOLT-4 leukemia
[22] = tested on: NCI-H226 lung
[23] = tested on: NCI-H23 lung
[24] = tested on: NCI-H460 lung
[25] = tested on: NCI/ADR-RES ovarian
[26] = tested on: OVCAR-3 ovarian
[27] = tested on: OVCAR-4 ovarian
[28] = tested on: OVCAR-5 ovarian
[29] = tested on: OVCAR-8 ovarian
[30] = tested on: PC-3 prostate
[31] = tested on: RPMI-8226 leukemia
[32] = tested on: SF-268 CNS
[33] = tested on: SF-295 CNS
[34] = tested on: SF-539 CNS
[35] = tested on: SK-MEL-28 melanoma
[36] = tested on: SK-MEL-5 melanoma
[37] = tested on: SK-OV-3 ovarian
[38] = tested on: SN12C renal
[39] = tested on: SNB-19 CNS
[40] = tested on: SNB-75 CNS
[41] = tested on: SW-620 colon
[42] = tested on: T-47D breast
[43] = tested on: U251 CNS
[44] = tested on: UACC-257 melanoma
[45] = tested on: UACC-62 melanoma
[46] = tested on: UO-31 renal

SMILES: NC(N)=N/N=C/c1c(-c2cccs2)nc2sccn12
- GI50 [1]: 9.61 µM
- TGI [1]: 21.4 µM
- GI50 [2]: 4.46 µM
- TGI [2]: 13.6 µM
- GI50 [3]: 21.7 µM
- TGI [3]: 45.1 µM
- GI50 [4]: 13.2 µM
- TGI [4]: 26.5 µM
- GI50 [5]: 19.3 µM
- TGI [5]: 33.6 µM
- GI50 [6]: 2.57 µM
- TGI [6]: 16 µM
- GI50 [7]: 1.61 µM
- TGI [7]: 27.1 µM
- GI50 [8]: 13.6 µM
- TGI [8]: 26.4 µM
- GI50 [9]: 6.32 µM
- TGI [9]: 19.1 µM
- GI50 [10]: 4.23 µM
- TGI [10]: 17.7 µM
- GI50 [11]: 15.4 µM
- TGI [11]: 28.8 µM
- GI50 [12]: 12.8 µM
- TGI [12]: 39 µM
- GI50 [13]: 11.2 µM
- TGI [13]: 23.3 µM
- GI50 [14]: 13.2 µM
- TGI [14]: 27.1 µM
- GI50 [15]: 6.49 µM
- TGI [15]: 21.5 µM
- GI50 [16]: 8.24 µM
- TGI [16]: 20.7 µM
- GI50 [17]: 14 µM
- TGI [17]: 27 µM
- GI50 [18]: 16.6 µM
- TGI [18]: 30.2 µM
- GI50 [19]: 13.4 µM
- TGI [19]: 26.7 µM
- GI50 [20]: 13.2 µM
- TGI [20]: 25.9 µM
- GI50 [21]: 8.48 µM
- TGI [21]: 36.3 µM
- GI50 [22]: 13.2 µM
- TGI [22]: 26 µM
- GI50 [23]: 14.3 µM
- TGI [23]: 29 µM
- GI50 [24]: 14.7 µM
- TGI [24]: 39.7 µM
- GI50 [25]: 14.5 µM
- TGI [25]: 27.6 µM
- GI50 [26]: 3.66 µM
- TGI [26]: 18.1 µM
- GI50 [27]: 5.89 µM
- TGI [27]: 20 µM
- GI50 [28]: 17.5 µM
- TGI [28]: 31.3 µM
- GI50 [29]: 24.1 µM
- TGI [29]: 49 µM
- GI50 [30]: 11.1 µM
- TGI [30]: 23.1 µM
- GI50 [31]: 12.6 µM
- TGI [31]: > 100 µM
- GI50 [32]: 15.2 µM
- TGI [32]: 29.1 µM
- GI50 [33]: 11.5 µM
- TGI [33]: 23.6 µM
- GI50 [34]: 12.4 µM
- TGI [34]: 25.5 µM
- GI50 [35]: 12.6 µM
- TGI [35]: 25.3 µM
- GI50 [36]: 13.6 µM
- TGI [36]: 26.5 µM
- GI50 [37]: 13 µM
- TGI [37]: 25.7 µM
- GI50 [38]: 13.4 µM
- TGI [38]: 26.9 µM
- GI50 [39]: 14.8 µM
- TGI [39]: 28.6 µM
- GI50 [40]: 5.66 µM
- TGI [40]: 17.1 µM
- GI50 [41]: 12.8 µM
- TGI [41]: 28.2 µM
- GI50 [42]: 14.6 µM
- TGI [42]: 28.6 µM
- GI50 [43]: 15.8 µM
- TGI [43]: 33.9 µM
- GI50 [44]: 20.3 µM
- TGI [44]: 37.7 µM
- GI50 [45]: 14.8 µM
- TGI [45]: 28.3 µM
- GI50 [46]: 17 µM
- TGI [46]: 33.7 µM
